{"source": "patent US20210093531A1", "about": "“DERIVATIVES OF MENTHOL AND USES THEREOF” (Board of Trustees of Northern Illinois University, priority 2019, published 2021)", "key": {"trained panelists [1]": {"system": "trained panelists", "assay": "time-intensity analysis of cooling, lozenge application", "format": "in vivo", "conditions": "4-minute window", "procedure": "In order to evaluate the potential use of menthol glycinates as […] different food, beverage and oral hygiene products, select compounds were incorporated in different application systems. A beverage model system, a lozenge and a mouthwash application were created, and time-intensity analysis was performed using trained discrimination analysis panelists. Time-Intensity (TI) is a temporal sensory method. During TI evaluations, assessors are asked to score the intensity of perception of a single attribute over consumption of the product. Compared to single point measurements, TI analysis can characterize the onset, decline and rates thereof, of particular sensory characteristics. This analysis may reveal rich information regarding the intensity of an attribute over the time domain and identify temporal perceptual differences among samples that can greatly impact the overall profile of a product. For each sample evaluation, a temporal curve is generated, based on duplication. The temporal curves for each panelist are combined to generate a combined curve for each product that is evaluated. The following distinct parameters were calculated: Imax: peak intensity or maximum observed intensity on the whole curve; […]: time point where the reaction to the stimulus is first perceived on the curve; Tmax: time position of the peak intensity on the curve; Tplateau: protraction of maximum intensity or duration of maximum intensity; Text: time point of extinction of the perception of the stimulus, defined as the position in time after the peak intensity where the measured intensity disappears (or the end of evaluation window); Iext: intensity at time of extinction or end of evaluation; R increase: slope or rate of intensity increase between […] and Tmax; R decrease: slope or rate of intensity decrease between Tmax and Text; and Area: the total area under the time-intensity curve. The formula detailed in Table 4 was employed to create the lozenge application to evaluate menthol glycinates of interest using time-intensity analysis. [table] For time-intensity (T-I) evaluation of the cooling intensity of lozenges, 9 panelists were recruited (3 male, 6 female). Panelists were trained in basic taste descriptive analysis. A sweetness reference series (intensity range 2-12) was provided to be used as cross-modality reference to aid in scaling the intensity of the cool attribute present in the lozenge samples. Panelists evaluated samples in duplicates and all samples were presented blinded and in a randomized order using a 3-digit code. Panelists were instructed to provide cooling intensity at predetermined time points throughout an evaluation window of 4 minutes. […] Evaluations were performed with at least 4 hours between them to ensure no carry over. Data analysis for generation of T-I statistics and ANOVA analysis to determine significant difference among samples was performed using R STUDIO."}, "trained panelists [2]": {"system": "trained panelists", "assay": "time-intensity analysis of cooling, mouthwash application", "format": "in vivo", "conditions": "for Iext (cooling intensity at end of evaluation): 15 minutes after expectoration", "procedure": "In order to evaluate the potential use of menthol glycinates as […] different food, beverage and oral hygiene products, select compounds were incorporated in different application systems. A beverage model system, a lozenge and a mouthwash application were created, and time-intensity analysis was performed using trained discrimination analysis panelists. Time-Intensity (TI) is a temporal sensory method. During TI evaluations, assessors are asked to score the intensity of perception of a single attribute over consumption of the product. Compared to single point measurements, TI analysis can characterize the onset, decline and rates thereof, of particular sensory characteristics. This analysis may reveal rich information regarding the intensity of an attribute over the time domain and identify temporal perceptual differences among samples that can greatly impact the overall profile of a product. For each sample evaluation, a temporal curve is generated, based on duplication. The temporal curves for each panelist are combined to generate a combined curve for each product that is evaluated. The following distinct parameters were calculated: Imax: peak intensity or maximum observed intensity on the whole curve; […]: time point where the reaction to the stimulus is first perceived on the curve; Tmax: time position of the peak intensity on the curve; Tplateau: protraction of maximum intensity or duration of maximum intensity; Text: time point of extinction of the perception of the stimulus, defined as the position in time after the peak intensity where the measured intensity disappears (or the end of evaluation window); Iext: intensity at time of extinction or end of evaluation; R increase: slope or rate of intensity increase between […] and Tmax; R decrease: slope or rate of intensity decrease between Tmax and Text; and Area: the total area under the time-intensity curve. The formula shown in Table 8 was employed to create a mouthwash product to evaluate […] of interest using time-Intensity analysis. [table] The following test compounds were evaluated: menthol, XI-I-60, RK-2-10, XI-I-65, DK-1-50, and XI-2-73. For time-intensity (T-I) evaluation of the cooling attributes of mouthwash products, 8 panelists were recruited (2 male, 6 female). Panelists were trained in basic taste descriptive analysis. A sweetness reference series (intensity range 2-12) was provided to be used as cross-modality reference to aid in scaling the intensity of the cooling attribute present in the mouthwash samples. Panelists evaluated samples in duplicates and all sample were presented blinded and in a randomized order using a 3-digit code. Panelist evaluated 15 ml of mouthwash at a time and were instructed to rinse for 30 seconds and expectorate. Panelists were instructed to provide cooling intensities before and after expectoration. For the time before expectoration, evaluation started upon introducing the sample and every 10 seconds thereafter. After expectoration, the evaluation continued for 15 minutes and panelists provided cooling intensity ratings at predetermined times. Due to the unique nature of this product and the interest in prolonging the cooling attribute long after consumption, an additional parameter led was evaluated among samples via ANOVA. This parameter is the cooling intensity at time of extinction or in our case the end of evaluation. Data analysis for generation of T-I statistics and ANOVA analysis to determine significant difference among samples was performed using R STUDIO."}, "[3]": {"conditions": "estimated, relative to menthol; cited from earlier work"}, "[4]": {"conditions": "after expectoration for 15 minutes (Table 9b)"}, "[5]": {"conditions": "rinse phase 30 seconds (Table 9a)"}}, "note": "Marks after values point to notes of the source that are not given here."}
{"molecule": "CC(C)NCC(=O)O[C@@H]1C[C@H](C)CC[C@H]1C(C)C", "note": "[Product 7, (1R,2S,5R)-2-Isopropyl-5-methylcyclohexyl 2-(isopropylamino)acetate]", "values": [{"measurement": "Tstart (time cooling first perceived)", "setting": "trained panelists [1]", "value": "significantly delayed cooling onset"}, {"measurement": "Iext (cooling intensity at end of evaluation)", "setting": "trained panelists [2]", "value": "significantly higher cooling intensity"}, {"measurement": "AUC", "setting": "trained panelists [2]; [4]", "value": "significantly higher"}, {"measurement": "Imax", "setting": "trained panelists [2]; [5]", "value": "trending higher"}, {"measurement": "Rdec", "setting": "trained panelists [2]; [5]", "value": "significantly lower R decrease"}]}
{"molecule": "CC(C)[C@@H]1CC[C@@H](C)C[C@H]1OC(=O)CNC1CC1", "note": "[Product 12, (1R,2S,5R)-2-isopropyl-5-methylcyclohexyl 2-(cyclopropylamino)acetate]", "values": [{"measurement": "AUC (total area under time-intensity curve)", "setting": "trained panelists [1]", "value": "not significantly different than menthol"}, {"measurement": "Iext (cooling intensity at end of evaluation)", "setting": "trained panelists [2]; listed as XI-1-66", "value": "significantly higher cooling intensity"}, {"measurement": "Iext (cooling intensity at end of evaluation)", "setting": "trained panelists [2]; listed as XI-I-65", "value": "2.18^b"}, {"measurement": "AUC", "setting": "trained panelists [2]; [4]", "value": "5211.25^bc"}, {"measurement": "I max", "setting": "trained panelists [2]; [4]", "value": "13.20^ab"}, {"measurement": "Rdec", "setting": "trained panelists [2]; [4]", "value": "−0.01^b"}, {"measurement": "Tmax", "setting": "trained panelists [2]; [4]", "value": "32.50^a"}, {"measurement": "Tstart", "setting": "trained panelists [2]; [4]", "value": "30.00^a"}, {"measurement": "Rinc", "setting": "trained panelists [2]; after expectoration for 15 minutes (Table 9b), listed as XI-I-65", "value": "0.03^b"}, {"measurement": "Rinc", "setting": "trained panelists [2]; after expectoration for 15 minutes (Table 9b), listed as XI-I-66", "value": "positive and significantly higher compared to that of menthol"}, {"measurement": "AUC", "setting": "trained panelists [2]; [5]", "value": "186.88^a"}, {"measurement": "Rinc", "setting": "trained panelists [2]; [5]", "value": "0.23^a"}, {"measurement": "Tstart", "setting": "trained panelists [2]; [5]", "value": "10.00^a"}, {"measurement": "Rdec", "setting": "trained panelists [2]; rinse phase 30 seconds (Table 9a), listed as XI-165", "value": "significantly lower R decrease"}, {"measurement": "Rdec", "setting": "trained panelists [2]; rinse phase 30 seconds (Table 9a), listed as XI-I-65", "value": "0.00^b"}]}
{"molecule": "CC(C)[C@@H]1CC[C@@H](C)C[C@H]1C(=O)NCCc1ccccn1", "note": "[amide 19]", "values": [{"measurement": "times cooler than menthol (cooling potential)", "setting": "[3]", "value": "about 100 times"}]}
{"molecule": "Cc1cc2ccccc2n1CCNC(=O)[C@@H]1C[C@H](C)CC[C@H]1C(C)C", "note": "[compound 1]", "values": [{"measurement": "times cooler than menthol (cooling potential)", "setting": "[3]", "value": "~1000", "unit": "times"}]}
{"molecule": "(1R,2S,5R)-2-Isopropyl-5-methylcyclohexyl 2-(benzyl(methyl)amino)acetate [Product 15]", "values": [{"measurement": "Iext (cooling intensity at end of evaluation)", "setting": "trained panelists [2]", "value": "0.67^a"}, {"measurement": "AUC", "setting": "trained panelists [2]; [4]", "value": "4082.50^ac"}, {"measurement": "I max", "setting": "trained panelists [2]; [4]", "value": "13.50^ab"}, {"measurement": "Rdec", "setting": "trained panelists [2]; [4]", "value": "−0.01^b"}, {"measurement": "Tmax", "setting": "trained panelists [2]; [4]", "value": "32.50^a"}, {"measurement": "Tstart", "setting": "trained panelists [2]; [4]", "value": "30.00^a"}, {"measurement": "AUC", "setting": "trained panelists [2]; [5]", "value": "179.79^a"}, {"measurement": "Rinc", "setting": "trained panelists [2]; [5]", "value": "0.21^a"}, {"measurement": "Tstart", "setting": "trained panelists [2]; [5]", "value": "10.00^a"}]}
{"molecule": "(1R,2S,5R)-2-isopropyl-5-methylcyclohexyl 2-(cyclopropylamino)acetate [Product 12]", "values": [{"measurement": "AUC (total area under time-intensity curve)", "setting": "trained panelists [1]", "value": "1945.31^bc"}, {"measurement": "RDec (rate of intensity decrease)", "setting": "trained panelists [1]", "value": "0.042^ab"}, {"measurement": "RInc (rate of intensity increase)", "setting": "trained panelists [1]", "value": "0.042^ab"}, {"measurement": "Tmax (time of peak intensity)", "setting": "trained panelists [1]", "value": "206.25^a"}]}
